Source: US20240285630A1, “Methods and compositions for improving exercise performance” (MEZZION PHARMA CO., LTD., priority 2021, published 2024)

Tests used:
[1] = tested on: adolescents with Fontan physiology; test: FUEL Trial peripheral arterial tonometry (EndoPAT), log-transformed reactive hyperemia index; format: in vivo, human; details: for Log-transformed reactive hyperemia index, difference Week 26 - baseline, mean (SD): paired data
Excerpt: (§1) Baseline clinical testing completed before drug initiation included a blood draw to measure brain-type natriuretic peptide (BNP) level, a cardiopulmonary exercise test (CPET) using a standardized cycle ergometer ramp protocol, a standardized echocardiogram, and an assessment of peripheral vascular function using peripheral arterial tonometry (PAT) measured by finger cuff (EndoPAT; Itamar Medical, Israel). Participants who achieved maximal effort, defined as respiratory exchange ratio (RER)≥1.10 at peak exercise during CPET, were eligible for randomization and study drug initiation. […] End-of-study clinical testing included repeat measurement of serum BNP, CPET, echocardiogram, and PAT.
Baseline clinical testing completed before drug initiation included a blood draw to measure brain-type natriuretic peptide (BNP) level, a cardiopulmonary exercise test (CPET) using a standardized cycle ergometer ramp protocol (previously described in children and adolescents with Fontan physiology, Sleeper L A, Anderson P, Hsu D T, Mahony L, McCrindle B W, Roth S J, Saul J P, Williams R V, Geva T, Colan S D, Clark B J and Pediatric Heart Network I. Design of a large cross-sectional study to facilitate future clinical trials in children with the Fontan palliation. Am Heart J. 152(3):427-433 (September 2006), a standardized echocardiogram, and an assessment of peripheral vascular function using peripheral arterial tonometry (PAT) measured by finger cuff (EndoPAT; Itamar Medical, Israel). Participants who achieved maximal effort, defined as respiratory exchange ratio (RER)>1.10 at peak exercise during CPET, were eligible for randomization and study drug initiation. […] End-of-study clinical testing included repeat measurement of serum BNP, CPET, echocardiogram, and PAT. […]

Fontan population = test: FUEL OLE (open-label extension) trial; format: in vivo, human; details: those treated with udenafil in the FUEL trial; 26 to 78 weeks
Excerpt: Like most extension studies, the FUEL open label extension trial was not a placebo-controlled trial, but was instead designed to establish a safety profile over a longer duration of drug exposure—and is an independent source of data from FUEL.

[2] = tested on: adolescents with Fontan physiology; test: FUEL Trial echocardiographic myocardial performance index (MPI), blood pool Doppler; format: in vivo, human
Excerpt: Generally speaking, MPI (also referred to as the Doppler-derived index or Tei Index) is a measure of ventricular systolic and diastolic function as determined by a focused echocardiogram. It combines systolic and diastolic time intervals to assess heart function. More specifically, MPI can be used to assess ventricular performance represented by a numeric value using cardiac time intervals. This numeric value equals the sum of isovolumetric contraction time (ICT) and isovolumetric relaxation time (IRT) divided by ejection time (ET) and can be determined for either the left or right ventricle. Pellett, A. A., et al.: The Tei Index: Methodology and Disease. State Values. Echocardiography: A Jrnl. of CV Ultrasound & Allied Tech. 21(7):669-672 (2004); and Ulugay, A., Tatli E.: Myocardial performance index. Anadolu Kardiyol Derg. 8(2):143-8 (April 2008), both of which are incorporated herein by reference in their entireties. In the FUEL Trial, the MPI measured the performance of the single functioning ventricle. Thus, the MPI results from the FUEL Trial were determined by velocities obtained from blood pool Doppler assessment of the inflow and outflow tract of the functioning single ventricle. In other words, the FUEL Trial MPI was determined by measuring the cardiac time intervals using pulsed-wave Doppler velocity spectra of the ventricular inflow and outflow of the single functioning ventricle.
Echocardiograms were performed by sonographers with specific training for this protocol. The primary outcome of interest was MPI using Doppler-based measures of inflow and outflow duration. The duration of inflow into the dominant ventricle and outflow across the dominant semilunar valve were measured and used to calculate MPI using the standard formula. Tei C, Ling L H, Hodge D O, et al.: New index of combined systolic and diastolic myocardial performance: a simple and reproducible measure of cardiac function-a study in normals and dilated cardiomyopathy. J Cardiol, 26(6):357-66 (1995); and Pellet A A et al.: The Tei Index: Methodology and Disease State Values. Echocardiography: A Jrnl Of CV Ultrasound & Allied Tech, 21(7):669-672 (2004). Additional tissue Doppler images were obtained and used to calculate the tissue Doppler based MPI as previously described. Harada K, Tamura M, Toyono M et al.: Comparison of the right ventricular Tei index by tissue Doppler imaging to that obtained by pulsed Doppler in children without heart disease. Am J Cardiol, 90(5):566-9 (2002).
Whenever possible, three measurements were made and the mean duration was used for the calculation.
Each subject underwent an echocardiogram at the start and finish of the 26 weeks. […] Table 3. […] The change in the MPI was determined by velocities obtained from blood pool Doppler assessment of the inflow and outflow tract of the single functioning dominant ventricle. All measurements were made by the echocardiography core lab at the Children's Hospital of Wisconsin.

[3] = tested on: adolescents with Fontan physiology; details: cited from earlier work
[4] = tested on: adolescents with Fontan physiology; test: FUEL Trial resting data (heart rate, blood pressure, oxygen saturation); format: in vivo, human; details: baseline to 26-week
Excerpt: as §1
The primary analysis used the intention-to-treat population to evaluate the difference in the change in the primary outcome between treatment arms. This difference was assessed with an analysis of covariance (ANCOVA) with fixed factors for ventricular morphology (single left versus single right or mixed) and treatment group, with a continuous covariate of baseline max VO2. For those without data at the 26-week visit, this value was imputed as equal to the baseline value (no change). […] Secondary outcomes of continuous data points were analyzed in the manner described for the primary outcome. […]

In the case of CCCOc1ccc(S(=O)(=O)NCCC2CCCN2C)cc1-c1nc2c(CCC)nn(C)c2c(=O)[nH]1 (stereo not shown) [Udenafil, udenafil], the “Log-transformed reactive hyperemia index, difference LS Mean (SE), udenafil vs placebo” value ([1]; ANCOVA) is reported as 0.02 (0.030), the “Log-transformed reactive hyperemia index, difference Week 26 - baseline, mean (SD)” value [1] is reported as 0.06 (0.301) and the “Log-transformed reactive hyperemia index, difference Week 26 - baseline, mean (SD)” value ([1]; listed as udenafil) is reported as 0.07. The “Change from baseline in peak or max VO2 over FUEL and FUEL OLE” value (Fontan population) was “persistence of benefit”, the “MPI, median of the difference Week 26 - baseline” value ([2]; ITT population) was −0.01 and the “MPI difference Week 26 - baseline, LS Mean Dif A − B (SE), udenafil minus placebo” value ([2]; ITT population, ANCOVA) was −0.03 (0.014). For the same compound, the “MPI at Week 26, LS Mean Dif A − B (SE), udenafil minus placebo” value ([2]; ITT population, ANOVA) was −0.04 (0.018), the “MPI at Week 26, mean” value ([2]; ITT population, N=146) was 146: 0.42 and the “MPI, difference Week 26 - baseline, mean” value ([2]; all participants with paired data n=122, decrease shows improvement, p=0.028 vs placebo) was −0.02. The “MPI, difference in change (treatment - placebo)” value ([2]; baseline peak VO2 <80% predicted, N=189) was −0.04, the “MPI, difference in change (treatment - placebo)” value ([2]; baseline peak VO2 ≥80% predicted, N=60) was 0.01 and the “MPI, 26 week - baseline” value ([2]; excluding those with baseline peak VO2 ≥80% predicted, n=94) was −0.03. For the same compound, the Average serum concentration ([3]; 87.5 mg twice daily compared with other tested regimens) was “highest average serum concentration”, the “Dose limiting adverse events” value ([3]; 87.5 mg twice daily) was “not associated with dose limiting adverse events” and the Tolerability ([3]; all tested dosing regimens) was “demonstrated tolerability at all tested dosing regimens”. The “Change in resting heart rate, respiratory rate, or systolic blood pressure, udenafil vs placebo” value [4] was “no difference”.
